The values below come from publication PMC6423129, “Activity and structural analysis of GRL-117C: a novel small molecule CCR5 inhibitor active against R5-tropic HIV-1s” (Scientific Reports, 2019).

Experiment [1] concerns D1/85.16 cl.23 (VVC resistant). The experiment in a line: microbe, parasite or virus in culture. The class given is cell-based, HIV-1. The protocol:
(§1) MAGI-CCR5 cells[18] were maintained in DMEM supplemented with 10% fetal calf serum (FCS: Gemini Bio-Products, West Sacramento, CA), 200 μg/ml G418, 100 μg/ml hygromycin B, and 100 μg/ml zeomycin. The Chinese hamster ovary (CHO) cells expressing CCR5[19] were maintained in Ham’s F-12 medium (GIBCO-BRL, Rockville, MD) supplemented with 10% FCS, 50 U/ml penicillin, and 50 μg/ml streptomycin in the presence of 5 μg/ml blasticidin S hydrochloride. TZM-bl cells were obtained from the NIH AIDS Reagent Program, and were cultured in DMEM with 10% FCS. Peripheral blood mononuclear cells (PBMCs) were isolated from buffy coats of HIV-1 seronegative individuals, and were activated with 10 μg/ml phytohemagglutinin (PHA) prior to use[16]. A laboratory wild-type R5-HIV-1 strain (HIV-1Ba-L)[37] was employed for drug susceptibility assays. AD101 (experimental CCR5 inhibitor) and VVC-resistant HIV clones[7],[8] were provided by Dr. John P. Moore of Cornell University for this study. The clones were propagated with activated PBMCs, and were used for the assays. A clinical HIV-1 strain, HIV-1KP-5pc, and an MVC-resistant isolate, HIV-1KP-5mvcR, were prepared and used for antiviral assays, as previously described[10],[38]. The following reagents (plasmids) for T/F HIV-1 viruses[22],[24] were obtained through the NIH AIDS Reagent Program, Division of AIDS, NIAID, NIH: pCH040.c/2625 (cat# 11740), pCH106.c/2633 (cat# 11743), pTHRO.c/2626 (cat# 11745), and pCH058.c/2960 (cat# 11856), from Dr. John Kappes and Dr. Christina Ochsenbauer.
(§2) Antiviral assays using PHA-PBMCs (p24 assay) were conducted as previously reported[16],[38]. In brief, PHA-PBMCs (1 × 10^6/ml) were exposed to 50 TCID50 of HIV-1Ba-L or drug-resistant HIV-1 infectious clones in the presence or absence of various concentrations of drugs; 10-fold serial dilutions were performed in 96-well microculture plates. The amount of p24 antigens produced by the cells was determined on day 7 in the culture via a commercially available ELISA kit (PerkinElmer). The p24 production level in drug-free control cell cultures was used as the reference. […] Antiviral assays using MAGI-CCR5 cells (MAGI assay) were conducted as previously reported[16],[39]. Single-round virus infection assays using TZM-bl cells infected with R5-HIV-1s (HIV-1YU2, HIV-1KP-5pc, and HIV-1KP-5mvcR)[10] were also conducted as previously described.

Experiment [2] has as its system CC101.19 cl.7 (AD101 resistant). The experiment in a line: microbe, parasite or virus in culture. The experiment is classed as cell-based, HIV-1. The procedure: as §1, §2
The test system of experiment [3] is R5-HIV-1BaL. The experiment in a line: p24 assay using PBMCs and R5-HIV-1BaL. The experiment is classed as cell-based. The following applies: Human immunodeficiency virus 1, BAL, PBMC, 168 h, Ba-L (PBMCs), day 7. The procedure:
as §1, §2

Experiment [4] deals with pCH058.c/2960. The experiment in a line: MAGI assay, T/F HIV-1 clone pCH058.c/2960. The experiment is classed as cell-based. The settings on record: Human immunodeficiency virus 1, MAGI.
Text: We also examined the activity of GRL-compounds against Transmitter/founder (T/F) HIV-1 viruses. T/F viruses are involved in the initial infection. It is considered that T/F viruses virtually always use CCR5 rather than CXCR4 and infect T cells but not macrophages because […] of CD4 is needed to mediate virus entry for the initial transmission[20]–[24]. […] We obtained four HIV-1 T/F infectious clones. We determined the antiviral activity of GRL-117C, GRL-10007C and GRL-10018C on these HIV-1 clones using MAGI assay.
as §1, with “A clinical HIV-1 strain, HIV-1KP-5pc, and an MVC-resistant isolate, HIV-1KP-5mvcR, were prepared and used for antiviral assays, as previously described[10],[38].” left out
as §2

The test system of experiment [5] is HIV-1KP-5mvcR. The experiment in a line: TZM-bl single-round infection assay, MVC-resistant HIV-1KP-5mvcR. The class given is cell-based. The protocol: as §1, §2
For experiment [6], the system named is CC1/85 cl.7. The experiment in a line: Anti-HIV-1 assay, drug-naive clinical strain CC1/85 cl.7. The experiment is classed as cell-based. The following applies: Human immunodeficiency virus 1. The protocol:
as §1, §2

Experiment [7] has as its system HIV-1YU2. In words: TZM-bl single-round infection assay, HIV-1YU2. The class given is cell-based. The settings on record: Human immunodeficiency virus 1, YU2, drug-sensitive, mean ± SD. The protocol:
as §1, §2

Setting [8] is: Human immunodeficiency virus 1, TZM-bl.

Where only a bound is given, the exact number is not on record here.

Regarding `C=CCN(C(=O)OCc1ccc([N+](=O)[O-])cc1)C1CC2CCC(C1)N2CCC(C)(CN(C)S(=O)(=O)c1ccccc1)c1ccccc1` (stereo not shown) [GRL-117C], the IC50 (usually the concentration at which inhibition is half-maximal) in experiment [1] (D1/85.16 cl.23 (VVC resistant)) is 29.8 nM; in experiment [1] (Human immunodeficiency virus 1, D1/85.16 cl.23 (VVC resistant)), less than 40 nM; in experiment [2] (CC101.19 cl.7 (AD101 resistant)), 32.5 nM; in experiment [2] (Human immunodeficiency virus 1, CC101.19 cl.7 (AD101 resistant)), less than 40 nM; in experiment [3], 8.1 nM; in experiment [4], 3.2 ± 1 nM. Besides, the IC50 stood at 686 ± 89 nM in experiment [5] (setting [8]), 3.5 nM in experiment [6] and 68 ± 8.8 nM in experiment [7]. Also, the IC90 (as a rule, the concentration needed for an effect of 90%) in experiment [1] (Human immunodeficiency virus 1) is 415 nM; in experiment [2] (Human immunodeficiency virus 1), 296 nM; in experiment [3], 48.3 nM; in experiment [5] (setting [8]), more than 100 nM; in experiment [6], 28.9 nM; in experiment [7] it was more than 100 nM. In experiment [5] (686 nM vs MVC 41 nM), the “IC50 against HIV-1KP-5mvcR relative to that of MVC” value is “more than 10 fold”.
